Values of other authors in patent publication US8586054B2, “Method for modulating, treating and/or preventing metabolic syndrome using MAS-G-protein-coupled receptor agonists” (Max-Delbruck-Centrum fur Molekulare Medizin, priority 2006, dated 2013).

Tests used:
[1] = LIFE study; compared with atenolol
[2] = HOPE study; versus placebo
[3] = VALUE study; hypertensive patients, valsartan versus amlodipine

## CCCCc1nc(Cl)c(CO)n1Cc1ccc(-c2ccccc2-c2nn[nH]n2)cc1 [Losartan]
[1]
  reduction in the appearance of new cases of diabetes: 25%

## CCOC(=O)[C@H](CCc1ccccc1)N[C@@H](C)C(=O)N1[C@H](C(=O)O)C[C@@H]2CCC[C@@H]21 [ramipril]
[2]
  incidence of diabetes lower than in the group that received placebo: 34%

## CCCCC(=O)N(Cc1ccc(-c2ccccc2-c2nnn[nH]2)cc1)[C@H](C(=O)O)C(C)C [valsartan]
[3]
  reduction in new cases of diabetes: 23%
